Experimental data taken from ChEMBL document CHEMBL1201862, “PubChem BioAssay data set” (2004).
Active and inactive are the calls of the source.

Experiments:
[1] = blockers of HIV-1 envelope-mediated cell-cell fusion – cherry-pick, dose response (AID 652057); format: functional, cell-based
[2] = HIV-1 AD8 envelope cell-cell fusion blockers – cherry-pick, dose response (AID 652062); format: functional, cell-based;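 further: luciferase signal from cell-cell fusion driven by HIV-1 clade B AD8 Env; potency is for inhibitors of fusion seen as a drop in luminescence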
[3] = blockers of HIV-1 ZM109 envelope-driven cell-cell fusion – HeLa effector, CEM target cells, luciferase, cherry-pick, dose response (AID 652058); format: functional, cell-based;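 further: luciferase signal from HIV-1 Env mediated cell-cell fusion of effector and target cells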
[4] = off-target signal loss in HeLa-CEM21 co-culture – HeLa F-luc CTL cells, cherry-picked, counter-screen for HIV-1 Env fusion inhibitor project, dose response (AID 652040); format: functional, cell-based;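 further: potency for signal decrease marking cytotoxic or nonspecific inhibition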
[5] = molecular target: T1, Nuclear receptor subfamily 0 group B member 1 (Homo sapiens, UniProt P51843); format: functional, cell-based;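 further: HEK293T cells transfected with SF-1 and DAX-1 plus StAR promoter luciferase reporter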
T1 sequence (P51843 whole entry): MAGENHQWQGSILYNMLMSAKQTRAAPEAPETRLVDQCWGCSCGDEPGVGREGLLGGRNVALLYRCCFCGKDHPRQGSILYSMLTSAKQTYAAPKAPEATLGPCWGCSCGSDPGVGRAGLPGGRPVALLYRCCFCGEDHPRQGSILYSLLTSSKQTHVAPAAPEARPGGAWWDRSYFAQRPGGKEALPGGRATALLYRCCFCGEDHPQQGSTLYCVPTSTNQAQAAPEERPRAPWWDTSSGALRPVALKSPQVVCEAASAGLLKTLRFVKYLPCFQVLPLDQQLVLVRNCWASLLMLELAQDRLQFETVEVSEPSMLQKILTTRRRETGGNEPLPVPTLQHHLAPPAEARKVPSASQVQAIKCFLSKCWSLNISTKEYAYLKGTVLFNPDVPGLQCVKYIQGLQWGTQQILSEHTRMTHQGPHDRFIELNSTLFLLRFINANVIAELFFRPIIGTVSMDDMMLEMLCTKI

cells = format: functional, cell-based
Cytochrome P450 1A2 = molecular target: T2, Cytochrome P450 1A2 (Homo sapiens, UniProt P05177);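 further: PubChem cytochrome P450 panel assay, CYP1A2 panel member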
T2 sequence (P05177 whole entry): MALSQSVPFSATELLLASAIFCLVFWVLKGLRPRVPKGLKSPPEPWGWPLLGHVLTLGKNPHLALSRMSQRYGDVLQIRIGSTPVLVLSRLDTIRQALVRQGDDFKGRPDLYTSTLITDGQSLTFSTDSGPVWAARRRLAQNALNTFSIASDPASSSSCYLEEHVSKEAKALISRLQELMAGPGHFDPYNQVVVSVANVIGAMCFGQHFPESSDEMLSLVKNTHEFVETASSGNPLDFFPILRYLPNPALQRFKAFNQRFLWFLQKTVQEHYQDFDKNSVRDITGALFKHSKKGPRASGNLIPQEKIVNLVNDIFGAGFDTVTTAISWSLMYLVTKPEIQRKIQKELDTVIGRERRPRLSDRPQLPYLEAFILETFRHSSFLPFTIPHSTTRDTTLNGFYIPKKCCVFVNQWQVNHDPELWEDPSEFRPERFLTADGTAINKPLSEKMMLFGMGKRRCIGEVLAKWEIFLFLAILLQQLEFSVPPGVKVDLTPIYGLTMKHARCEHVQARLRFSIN

Cytochrome P450 2C9 = Cytochrome P450 2C9 (Homo sapiens, UniProt P11712)
Chain of Cytochrome P450 2C9 (P11712 whole entry): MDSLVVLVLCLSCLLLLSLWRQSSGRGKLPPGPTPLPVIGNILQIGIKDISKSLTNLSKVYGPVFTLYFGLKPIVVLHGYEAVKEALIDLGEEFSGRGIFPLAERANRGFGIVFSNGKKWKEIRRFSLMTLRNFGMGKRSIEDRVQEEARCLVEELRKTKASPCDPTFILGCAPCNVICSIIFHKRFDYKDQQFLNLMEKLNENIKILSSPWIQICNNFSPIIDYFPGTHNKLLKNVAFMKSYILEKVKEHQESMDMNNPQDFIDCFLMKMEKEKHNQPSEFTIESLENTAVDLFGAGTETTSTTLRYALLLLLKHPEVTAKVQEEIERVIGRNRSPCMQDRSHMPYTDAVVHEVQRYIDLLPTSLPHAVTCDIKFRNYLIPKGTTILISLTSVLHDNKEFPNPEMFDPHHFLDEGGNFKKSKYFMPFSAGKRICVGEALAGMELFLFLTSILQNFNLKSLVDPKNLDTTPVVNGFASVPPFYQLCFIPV

Cytochrome P450 2D6 = Cytochrome P450 2D6 (Homo sapiens, UniProt P10635);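 further: CYP2D6 member of a cytochrome P450 panel assay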
Chain of Cytochrome P450 2D6 (P10635 whole entry): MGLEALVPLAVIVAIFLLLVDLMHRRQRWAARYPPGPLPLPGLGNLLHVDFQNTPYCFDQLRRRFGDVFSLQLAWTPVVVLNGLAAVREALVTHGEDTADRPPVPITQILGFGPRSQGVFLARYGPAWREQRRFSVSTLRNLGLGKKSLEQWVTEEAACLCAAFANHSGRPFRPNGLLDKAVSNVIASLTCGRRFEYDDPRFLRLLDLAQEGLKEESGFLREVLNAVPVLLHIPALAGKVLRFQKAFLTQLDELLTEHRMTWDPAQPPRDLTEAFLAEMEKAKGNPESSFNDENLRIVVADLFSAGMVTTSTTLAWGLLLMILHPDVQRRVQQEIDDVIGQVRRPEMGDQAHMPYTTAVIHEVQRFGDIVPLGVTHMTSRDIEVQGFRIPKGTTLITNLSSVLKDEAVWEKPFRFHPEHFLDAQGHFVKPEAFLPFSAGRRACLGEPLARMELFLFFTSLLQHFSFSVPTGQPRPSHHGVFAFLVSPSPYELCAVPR

[6] = molecular target: T3, Short transient receptor potential channel 4 (Mus musculus, UniProt Q9QUQ5); test: calcium entry via TRPC4 opening agents – cell-based, HEK293 TRPC4/mu-opioid, Fluo-4 calcium, dose response (AID 434937); format: functional
T3 sequence (Q9QUQ5 whole entry): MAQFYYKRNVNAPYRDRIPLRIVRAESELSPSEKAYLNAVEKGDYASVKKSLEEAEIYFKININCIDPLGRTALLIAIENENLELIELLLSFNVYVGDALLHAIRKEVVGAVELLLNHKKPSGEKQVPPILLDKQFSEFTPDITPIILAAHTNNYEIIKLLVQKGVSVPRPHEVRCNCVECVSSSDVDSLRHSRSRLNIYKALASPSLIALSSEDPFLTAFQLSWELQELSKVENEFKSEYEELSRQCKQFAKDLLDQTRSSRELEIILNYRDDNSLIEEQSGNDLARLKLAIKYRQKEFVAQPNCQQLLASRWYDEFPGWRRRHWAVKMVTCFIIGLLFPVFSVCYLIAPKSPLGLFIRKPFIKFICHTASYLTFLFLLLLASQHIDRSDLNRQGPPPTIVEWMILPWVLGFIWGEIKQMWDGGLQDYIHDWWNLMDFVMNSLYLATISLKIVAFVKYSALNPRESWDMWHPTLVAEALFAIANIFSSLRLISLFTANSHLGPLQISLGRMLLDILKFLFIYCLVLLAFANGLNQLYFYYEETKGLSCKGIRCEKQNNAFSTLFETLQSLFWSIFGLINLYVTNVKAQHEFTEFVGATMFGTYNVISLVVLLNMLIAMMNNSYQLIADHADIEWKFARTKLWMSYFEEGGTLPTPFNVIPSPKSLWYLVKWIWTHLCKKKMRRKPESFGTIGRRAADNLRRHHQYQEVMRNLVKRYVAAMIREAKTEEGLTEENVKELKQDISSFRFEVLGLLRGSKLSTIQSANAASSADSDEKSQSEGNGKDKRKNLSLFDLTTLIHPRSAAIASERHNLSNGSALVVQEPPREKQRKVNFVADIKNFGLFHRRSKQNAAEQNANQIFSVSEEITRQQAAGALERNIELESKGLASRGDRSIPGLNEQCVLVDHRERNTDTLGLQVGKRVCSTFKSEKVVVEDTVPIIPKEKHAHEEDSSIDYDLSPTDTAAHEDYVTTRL

Cytochrome P450 2C19 = Cytochrome P450 2C19 (Homo sapiens, UniProt P33261); test: Cytochrome panel assay with activity outcomes. Panel member name: p450-cyp2c19 Compounds with AC50 equal or less than 10 uM are considered active; format: functional; conditions: read-out: AC50
Chain of Cytochrome P450 2C19 (P33261 whole entry): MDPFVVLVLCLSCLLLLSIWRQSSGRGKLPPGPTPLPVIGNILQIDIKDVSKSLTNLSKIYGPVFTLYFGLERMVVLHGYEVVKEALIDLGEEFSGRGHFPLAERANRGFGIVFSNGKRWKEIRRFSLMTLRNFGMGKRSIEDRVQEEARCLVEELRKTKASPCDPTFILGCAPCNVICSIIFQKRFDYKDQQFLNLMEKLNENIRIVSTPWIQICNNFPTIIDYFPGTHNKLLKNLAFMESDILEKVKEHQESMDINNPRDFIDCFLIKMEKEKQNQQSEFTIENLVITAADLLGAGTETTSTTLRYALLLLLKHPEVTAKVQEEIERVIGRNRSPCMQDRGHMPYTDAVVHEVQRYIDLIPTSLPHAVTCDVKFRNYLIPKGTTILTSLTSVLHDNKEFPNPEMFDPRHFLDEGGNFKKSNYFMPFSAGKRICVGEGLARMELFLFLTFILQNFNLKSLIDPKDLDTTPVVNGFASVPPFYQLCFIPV

[7] = molecular target: T4, Corticotropin-releasing factor receptor 2/Corticotropin-releasing factor-binding protein (Homo sapiens, UniProt P24387+Q13324); test: activators of CRF receptor 2 with binding protein – uHTS hits, confirmation (AID 602473); format: functional; conditions: read-out: EC50_Mean
T4 sequence (Q13324 whole entry): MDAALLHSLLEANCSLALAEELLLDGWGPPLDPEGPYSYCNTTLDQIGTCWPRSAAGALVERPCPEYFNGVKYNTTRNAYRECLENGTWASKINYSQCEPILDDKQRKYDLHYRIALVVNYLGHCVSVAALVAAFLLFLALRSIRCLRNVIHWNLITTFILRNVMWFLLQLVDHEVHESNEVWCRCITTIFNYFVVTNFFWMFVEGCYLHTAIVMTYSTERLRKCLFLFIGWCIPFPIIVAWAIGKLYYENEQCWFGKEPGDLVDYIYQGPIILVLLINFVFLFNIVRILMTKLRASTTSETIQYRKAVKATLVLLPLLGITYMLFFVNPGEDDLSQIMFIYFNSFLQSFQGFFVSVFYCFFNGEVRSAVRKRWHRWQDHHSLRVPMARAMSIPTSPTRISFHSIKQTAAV
T4 sequence (P24387 whole entry): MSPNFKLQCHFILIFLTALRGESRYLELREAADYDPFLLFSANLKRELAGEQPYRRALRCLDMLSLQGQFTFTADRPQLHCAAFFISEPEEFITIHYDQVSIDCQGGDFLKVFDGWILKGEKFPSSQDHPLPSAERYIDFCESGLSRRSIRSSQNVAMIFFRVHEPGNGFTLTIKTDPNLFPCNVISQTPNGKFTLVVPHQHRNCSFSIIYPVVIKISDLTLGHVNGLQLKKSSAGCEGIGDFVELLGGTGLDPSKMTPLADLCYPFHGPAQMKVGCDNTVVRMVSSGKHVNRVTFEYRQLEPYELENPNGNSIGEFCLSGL

HEK293 = test: EBV LMP1 TES2 canonical NF-kB signalling blockers – cell-based, HEK293, luciferase, cherry-pick, dose response (AID 588343); format: functional; conditions: Homo sapiens
[8] = blockade of melanocortin 4 receptor signaling – cell-based, plate reader, cherry pick, counter-screen for LGR2 antagonist project, dose response (AID 743444); format: functional;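 further: transfected HEK 293 cells stimulated with alpha-MSH peptide; potency of inhibitors of the alpha-MSH evoked signal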
[9] = toxicity toward HepG2 liver cells – cell-based, plate reader, cherry-pick, antagonist series, cytotoxicity control, dose response (AID 743416); format: functional
[10] = blockers of bursicon-stimulated LGR2 cAMP reporter – cell-based, HEK293, CRE-luciferase reporter, cherry pick, set 2, dose response (AID 743343); format: functional;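 further: transfected cells were stimulated with diluted bursicon conditioned medium after compound addition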
[11] = A549 cell cytotoxicity, dose response, cytotoxicity control, plate reader, cherry-pick, antagonist series (AID 743412); format: functional, cell-based
H9c2 = test: cells; format: functional, cell-based; conditions: Rattus norvegicus, H9c2, Myocardium;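 further: confirmatory concentration-response retest of ultra-high-throughput screening hits for modulation of myocardial damage; cell death induced by hydrogen peroxide oxidative stress; compound pretreatment for 60 min then peroxide exposure for 2 h; potency is for protecting the cells against peroxide damage rather than for killing them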
Cytochrome P450 3A4 = Cytochrome P450 3A4 (Homo sapiens, UniProt P08684);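 further: CYP3A4 tested as one member of a cytochrome P450 panel screen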
Chain of Cytochrome P450 3A4 (P08684 whole entry): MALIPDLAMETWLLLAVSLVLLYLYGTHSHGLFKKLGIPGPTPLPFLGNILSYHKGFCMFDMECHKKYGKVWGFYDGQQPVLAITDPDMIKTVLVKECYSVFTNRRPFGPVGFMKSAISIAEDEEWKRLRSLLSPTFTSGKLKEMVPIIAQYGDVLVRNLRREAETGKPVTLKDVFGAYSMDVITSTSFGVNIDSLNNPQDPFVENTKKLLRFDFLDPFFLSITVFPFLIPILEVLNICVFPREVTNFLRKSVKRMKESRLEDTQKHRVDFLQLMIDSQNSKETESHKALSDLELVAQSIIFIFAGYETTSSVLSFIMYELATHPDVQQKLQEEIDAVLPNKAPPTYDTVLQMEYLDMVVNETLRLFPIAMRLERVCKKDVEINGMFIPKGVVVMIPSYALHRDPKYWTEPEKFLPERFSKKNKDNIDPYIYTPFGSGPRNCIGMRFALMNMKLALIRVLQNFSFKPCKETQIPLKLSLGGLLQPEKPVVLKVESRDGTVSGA

[12] = intracellular Trypanosoma cruzi inhibitors in host cells – cell-based, plate reader, cherry-pick samples, set 3, dose response (AID 651818); format: functional;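 further: compounds incubated with infected cells for about four days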

In the case of `CCOC(=O)c1c(CSc2cccs2)n(C)c2cc(Br)c(O)c(CN(C)C)c12`, the AC50 [1] is reported as 1.62 µM (active), the AC50 [2] is reported as 14.4 µM (active) and the AC50 [3] is reported as 1.23 µM (active). The AC50 [4] was 2.08 µM (active).
For `CCOc1cccc(/C=C/c2ccc3ccccc3n2)c1OC(C)=O`, the IC50 [5] was > 67.5 µM (inactive) and the IC50 (cells) was > 67.5 µM (inactive).
In the case of `CC(C)NC(=O)COC(=O)c1cc(O)nc2ccccc12`, the AC50 (Cytochrome P450 1A2) is reported as 7.08 µM (inconclusive) and the AC50 (Cytochrome P450 2C9) is reported as “inconclusive”.
In the case of `COc1ccc(C(=O)CN2CCN(c3ccc(F)cc3)CC2)cc1OC`, the AC50 (Cytochrome P450 2C9) is reported as “inconclusive” and the AC50 (Cytochrome P450 2D6) is reported as 25.1 µM (inconclusive).
For `O=C(NCc1ccccc1)C1=C[C@@H](C2CCCCC2)C[C@@H](OCc2ccc(CO)cc2)O1`, the EC50 [6] was 2.37 µM (active).
For `CCc1cc(C(=O)NN=C(S)NCC2CCCO2)cs1` (configuration not stated), the AC50 (Cytochrome P450 2C19) was 7.94 µM (inconclusive), the AC50 (Cytochrome P450 1A2) was 17.8 µM (inconclusive) and the AC50 (Cytochrome P450 2C9) was “inconclusive”.
In the case of `CCCc1c(O)nc(SCCN(CCC)CCC)nc1O`, the EC50 [6] is reported as 2.66 µM (active).
For `CCN1CCN(c2ccc(S(=O)(=O)N3CCCCC3)cc2NC(=O)CC(C)c2ccccc2)CC1` (configuration not stated), the EC50 [6] was 1.06 µM (active).
With `CS(=O)(=O)N1CCC2(CC1)CN(c1cccc(-c3ccccc3)c1)C2` the AC50 (Cytochrome P450 2C9) was “inconclusive”.
For `COc1ccc(CNCc2cn(-c3cccc(F)c3)nc2-c2ccc(C)o2)cc1`, the EC50 [6] was 5.96 µM (active).
With `COC(=O)c1ccc(C(S)=NCC2(N(C)C)CCCCC2)cc1` the EC50 [6] was 5.31 µM (active).
With `Cc1ccc(-c2nc3c(=O)n(C)c4ccccc4c3o2)cc1` the AC50 (Cytochrome P450 2C19) was 8.91 µM (inconclusive) and the AC50 (Cytochrome P450 2C9) was “inconclusive”.
With `CCOc1ccccc1N(CC(=O)N1CCOCC1)S(=O)(=O)c1ccc(SC)cc1` the EC50 [7] was 2.77 µM (active) and the EC50 [6] was 2.66 µM (active).
In the case of `COc1ccc2oc(C(=O)NCCc3ccccc3)c(C)c2c1`, the IC50 [5] is reported as > 67.5 µM (inactive), the AC50 (HEK293) is reported as 2.48 µM (active) and the AC50 [8] is reported as 8.65 µM (active). The IC50 (cells) was > 67.5 µM (inactive), the AC50 [9] was 12.7 µM (active) and the AC50 [10] was 5.62 µM (active). The AC50 [11] was 8.39 µM (active).
For `NC(=O)C1CCN(C(=O)c2cc3c(s2)CCCC3)CC1`, the IC50 [5] was > 67.6 µM (inactive) and the IC50 (cells) was > 67.6 µM (inactive).
With `CCN(C[C@H]1N[C@@](C)(C(=O)OC)[C@H]2C(=O)N(Cc3ccccc3)C(=O)[C@@H]12)C(=O)c1ccc(C(C)(C)C)cc1` the AC50 [1] was 5.34 µM (active), the IC50 (H9c2) was > 79 µM (inactive) and the AC50 [2] was 16.8 µM (active). For the same compound, the AC50 [3] was 4.92 µM (active) and the AC50 [4] was 10.2 µM (active).
With `Cc1cccc(NC(=O)CCSc2nc(C)cc(C)n2)c1` the AC50 (Cytochrome P450 2C9) was “inconclusive”, the AC50 (Cytochrome P450 2D6) was 22.4 µM (inconclusive) and the AC50 (Cytochrome P450 3A4) was 12.6 µM (inconclusive).
With `C[C@@H]1CN([C@@H](C)CO)C(=O)c2cccc(NC(=O)c3nc4ccccc4s3)c2O[C@@H]1CN(C)CC1CCCCC1` the AC50 [12] was 7.6 µM (active).
In the case of `C[C@@H]1CN([C@H](C)CO)C(=O)c2cccc(NC(=O)NC3CCCCC3)c2O[C@H]1CN(C)CC1CCCCC1`, the AC50 [12] is reported as 2.5 µM (active).
In the case of `C[C@H](CO)N1C[C@H](C)[C@@H](CN(C)Cc2ccc(Oc3ccccc3)cc2)Oc2c(NC(=O)c3ccc(-c4nccs4)cc3)cccc2C1=O`, the AC50 [12] is reported as 3.08 µM (active).
With `C[C@H]1CN([C@@H](C)CO)C(=O)Cc2cc(NC(=O)Nc3ccc(F)cc3)ccc2O[C@@H]1CN(C)Cc1ccc(C(F)(F)F)cc1` the AC50 [12] was 4.21 µM (active).
With `C[C@@H]1CN([C@H](C)CO)C(=O)c2cccc(NS(=O)(=O)c3ccccc3)c2O[C@@H]1CN(C)Cc1ccc(C(=O)Nc2ccccc2N)cc1` the AC50 [12] was 3.53 µM (active).
For `C[C@@H]1CCCCO[C@H](CN(C)C(=O)Nc2ccc(F)cc2)[C@@H](C)CN([C@H](C)CO)C(=O)c2cc(NC(=O)Nc3ccc(F)cc3)ccc2O1`, the AC50 [12] was 5.89 µM (active).
With `C[C@@H]1CN([C@@H](C)CO)S(=O)(=O)c2ccc(-c3cccc(F)c3)cc2O[C@@H]1CN(C)S(=O)(=O)c1ccccc1` the AC50 [1] was 0.597 µM (active), the AC50 [2] was 6.62 µM (active) and the AC50 [3] was 0.965 µM (active).
In the case of `C(=N\Nc1ccc2ccccc2n1)/c1ccc2c(c1)OCO2`, the IC50 [5] is reported as > 0.278 µM (active), the AC50 (HEK293) is reported as 2.42 µM (active) and the IC50 (cells) is reported as > 67.6 µM (inactive).
